According to US7802989B2, “Ozone tray” (CurOzone Ireland Ltd., priority 2000, dated 2010):

System: white spots
Assay: Ozone applied through tray over teeth and gums with in situ orthodontic bands; teeth examined for white spots
Format: in vivo
Settings: ozone introduced for up to 2 minutes
Text: The method includes disposing the resilient elastomeric tray over the teeth 124 and orthodontic bands 160 applied thereto.
Ozone introduced into the cavity 136 via the port 150 is provided for a period of time to treat the white spots and sterilize the orthodontic bands 160.
Thereafter, the ozone is evacuated from the cavity 136 via the nozzle 128 and the tray 120 is removed from the arched upper or lower teeth 124.
The tray is disposed over teeth and gums with in situ orthodontic bands and ozone introduced for up to 2 minutes.

O=[O+][O-] [ozone]
examination of teeth for white spots after ozone treatment: beneficial results
